For this assay, the target named is T1, recombinant human caspase-3 (Homo sapiens, UniProt P42574).
T1 sequence (P42574 29-175): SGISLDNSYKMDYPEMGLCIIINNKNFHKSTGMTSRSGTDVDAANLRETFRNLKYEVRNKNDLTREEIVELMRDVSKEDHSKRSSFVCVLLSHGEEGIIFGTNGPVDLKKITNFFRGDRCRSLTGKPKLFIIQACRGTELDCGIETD
T1 sequence (P42574 176-277): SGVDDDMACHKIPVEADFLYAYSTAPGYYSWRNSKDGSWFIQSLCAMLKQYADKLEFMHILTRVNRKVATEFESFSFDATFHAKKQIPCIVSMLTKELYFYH
As to the kind of experiment: Caspase-Glo […] luminescence assay, dose-response. It counts as biochemical.

For orientation: IC50 means the concentration that gives 50% inhibition.

`O=C(O)c1cc(-c2ccc(F)cc2F)ccc1O` [Diflunisal]: the IC50 amounted to 10.4 ± 0.5 µM.
With `CC(C(=O)O)c1cccc(Oc2ccccc2)c1` (stereo not drawn) [Fenoprofen], the half-inhibitory concentration (IC50) was determined as 47 ± 6.07 µM.
Next, `CC(C(=O)O)c1ccc2c(c1)Cc1cccnc1O2` (stereo not drawn) [Pranoprofen]: 54.3 ± 0.6 µM.

These data come from doi:10.1101/356956v1 (biorxiv, 2018).
